The target of the test is CDK4/CyclinD1 (Homo sapiens, UniProt P11802). Put plainly: CDK4/CyclinD1 Flashplate assay, 96-well format, biotinylated-Rb peptide substrate. In kind it is biochemical. How it is done: This is a CDK4/CyclinD1 kinase assay in a 96-well Streptavidin-coated Flashplate with a biotinylated-Rb peptide substrate.
Each point is tested in duplicate
Biotinylated-Rb: Biotin-[…]
• 1. Prepare substrate: 1 mg/ml solution made fresh in PBS. • 2. Add 100 μg per well to the Flashplate. • 3. Incubate for 2 hours at RT. • 4. From 10 mM inhibitor stocks in DMSO, make 1 mM, 300 μM, 100 μM, 30 μM and 10 μM series of dilution in DMSO. • 5. Wash the Flashplate 3 times with 300 μl PBS to remove unbound peptide substrate. • 6. Add the CDK4/CyclinD1 kinase: 70 ng per well, in a volume of 90 μl in kinase buffer (except for “no enzyme” control wells). • 7. Add 1 μl^1 per well of inhibitor to test 10 μM, 3 μM, 1 μM, 0.3 μM and 0.1 μM in final concentration per 100 μl in each well. • 8. Shake gently the Flashplate 1 minute. • 9. Incubate 30 minutes on wet ice. • 10. Initiate the reaction with 10 μl kinase buffer containing 1 μM final cold ATP and 1 μCi final ^33P-ATP per well. • 11. Shake gently the Flashplate 1 minute. • 12. Incubate 45 minutes at RT (no shaking). • 13. Wash the Flashplate 3 times with 300 μl PBS • 14. Count to detect the incorporation of ^33P-ATP by the kinase to the Rb phosphorylation site.

CDK4/CyclinD1, sequence (P11802 whole entry, species assumed): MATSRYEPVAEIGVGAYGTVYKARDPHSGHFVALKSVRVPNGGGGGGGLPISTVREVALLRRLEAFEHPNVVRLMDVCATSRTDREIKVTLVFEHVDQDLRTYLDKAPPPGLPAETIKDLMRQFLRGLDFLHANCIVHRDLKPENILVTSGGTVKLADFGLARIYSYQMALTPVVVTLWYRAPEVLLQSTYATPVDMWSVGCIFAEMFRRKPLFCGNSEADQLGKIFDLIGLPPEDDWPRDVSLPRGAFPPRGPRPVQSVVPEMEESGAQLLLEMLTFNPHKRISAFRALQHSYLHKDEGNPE
CDK4/CyclinD1, sequence (P24385 whole entry partner, species assumed): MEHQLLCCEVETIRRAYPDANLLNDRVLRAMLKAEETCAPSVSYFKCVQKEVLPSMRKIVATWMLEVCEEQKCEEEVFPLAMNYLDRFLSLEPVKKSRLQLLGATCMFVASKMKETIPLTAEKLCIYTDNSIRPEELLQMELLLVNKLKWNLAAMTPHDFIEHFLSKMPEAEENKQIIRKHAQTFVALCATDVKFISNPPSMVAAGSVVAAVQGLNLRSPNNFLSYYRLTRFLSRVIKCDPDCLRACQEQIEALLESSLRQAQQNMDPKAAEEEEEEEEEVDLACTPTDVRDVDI

What is called IC50 is the concentration needed to halve the response being measured. The compound `CC[C@@H](CO)Nc1ccc(S(=O)(=O)Oc2ccc3[nH]c(NC(=O)C4CC4)nc3c2)cc1` [Example 60-r, 4-(1S-Hydroxymethyl-propylamino)-benzenesulfonic acid 2-(cyclopropanecarbonyl-amino)-1H-benzoimidazol-5-yl ester] came in with an IC50 of 600 nM. As for `CCNCCNc1ccc(S(=O)(=O)Oc2ccc3[nH]c(NC(=O)C4CC4)nc3c2)cc1` [Example 60-s, 4-(2-Ethylamino-ethylamino)-benzenesulfonic acid 2-(cyclopropanecarbonyl-amino)-1H-benzoimidazol-5-yl ester], the half-inhibitory concentration (IC50) stood at 8000 nM. This IC50 lies about 13-fold higher than the previous one. `CC(C)N(CCNc1ccc(S(=O)(=O)Oc2ccc3[nH]c(NC(=O)C4CC4)nc3c2)cc1)C(C)C` [Example 60-t, 4-(2-Diisopropylamino-ethylamino)-benzenesulfonic acid 2-(cyclopropanecarbonyl-amino)-1H-benzoimidazol-5-yl ester] gave a half-maximal inhibitory concentration (IC50) of 2000 nM. `O=C(Nc1nc2cc(OS(=O)(=O)c3ccc(NC4CN5CCC4CC5)cc3)ccc2[nH]1)C1CC1` (centres unmarked) [Example 60-v, 4-(1-Aza-bicyclo[2.2.2]-oct-3-ylamino)-benzenesulfonic acid 2-(cyclopropane-carbonyl-amino)-1H-benzoimidazol-5-yl ester] yielded an IC50 of 4200 nM. On to `O=C(Nc1nc2cc(OS(=O)(=O)c3ccc(NCCNc4ccccc4)cc3)ccc2[nH]1)C1CC1` [Example 60-w, 4-(2-Phenylamino-ethylamino)-benzenesulfonic acid 2-(cyclopropanecarbonyl-amino)-1H-benzoimidazol-5-yl ester], for which the midpoint of inhibition, the IC50, lay at 500 nM. The same measure, in the same setting: with `NC(=O)[C@H]1CCCN1c1ccc(S(=O)(=O)Oc2ccc3[nH]c(NC(=O)C4CC4)nc3c2)cc1` [Example 60-y, 4-(2R-Carbamoyl-pyrrolidin-1-yl)-benzenesulfonic acid 2-(cyclopropanecarbonyl-amino)-1H-benzoimidazol-5-yl ester] the figure was 2500 nM; with `COC(=O)Nc1nc2ccc(OS(=O)(=O)c3ccc(OC(F)(F)F)cc3)cc2[nH]1` [Example 61], 2060 nM. Broadly, the inhibition is the drop in the measured response relative to a control, in per cent. Take `COC(=O)Nc1nc2cc(OS(=O)(=O)c3c(C)noc3C)ccc2[nH]1` [Example 62-a, 3,5-Dimethyl-isoxazole-4-sulfonic acid 2-methoxycarbonylamino-1H-benzoimidazol-5-yl ester]: testing at 10 µM gave an inhibition of 50%. The compound `COC(=O)Nc1nc2cc(OS(=O)(=O)c3ccccc3F)ccc2[nH]1` [Example 62-d, 2-Fluoro-benzenesulfonic acid 2-methoxycarbonylamino-1H-benzoimidazol-5-yl ester] came in with an IC50 of 1300 nM.

`COC(=O)Nc1nc2cc(OS(=O)(=O)c3cccc([N+](=O)[O-])c3)ccc2[nH]1` [Example 62-l, 3-Nitro-benzenesulfonic acid 2-methoxycarbonylamino-1H-benzoimidazol-5-yl ester] returned an IC50 of 2500 nM. The same measure, in the same setting: to `COC(=O)Nc1nc2cc(OS(=O)(=O)c3cccc(C(F)(F)F)c3)ccc2[nH]1` [Example 62-m, 3-Trifluoromethyl-benzenesulfonic acid 2-methoxycarbonylamino-1H-benzoimidazol-5-yl ester] belongs 1200 nM; to `COC(=O)Nc1nc2cc(OS(=O)(=O)c3ccccc3C#N)ccc2[nH]1` [Example 62-n, 2-Cyano-benzenesulfonic acid 2-methoxycarbonylamino-1H-benzoimidazol-5-yl ester], 1000 nM; to `COC(=O)Nc1nc2cc(OS(=O)(=O)c3ccccc3C(F)(F)F)ccc2[nH]1` [Example 62-o, 2-Trifluoromethyl-benzenesulfonic acid 2-methoxycarbonylamino-1H-benzoimidazol-5-yl ester], 1000 nM. `COC(=O)Nc1nc2cc(OS(=O)(=O)c3ccc(F)cc3F)ccc2[nH]1` [Example 62-p, 2,4-Difluoro-benzenesulfonic acid 2-methoxycarbonylamino-1H-benzoimidazol-5-yl ester] showed an IC50 of 700 nM. The IC50 values of the last two compounds are within 1.5-fold of each other. Same read-out and setting: to `COC(=O)Nc1nc2cc(OS(=O)(=O)c3cc(F)ccc3C)ccc2[nH]1` [Example 62-q, 5-Fluoro-2-methyl-benzenesulfonic acid 2-methoxycarbonylamino-1H-benzoimidazol-5-yl ester] belongs 1600 nM. For the compound `COC(=O)Nc1nc2cc(OS(=O)(=O)c3cccc(F)c3)ccc2[nH]1` [Example 62-r, 3-Fluoro-benzenesulfonic acid 2-methoxycarbonylamino-1H-benzoimidazol-5-yl ester], the midpoint of inhibition, the IC50, lay at 2500 nM. The compound `COC(=O)Nc1nc2cc(OS(=O)(=O)c3ccc(C#N)cc3)ccc2[nH]1` [Example 62-s, 4-Cyano-benzenesulfonic acid 2-methoxycarbonylamino-1H-benzoimidazol-5-yl ester] registered an IC50 of 1750 nM.

With `COC(=O)Nc1nc2ccc(OS(=O)(=O)c3ccc(OCc4ccccc4)cc3)cc2[nH]1` [Example 63, 4-benzyloxy-benzenesulfonic acid 2-methoxycarbonylamino-1H-benzoimidazol-5-yl ester], half-maximal inhibition (IC50) required 1500 nM. As to `CCOc1ccc(S(=O)(=O)Oc2ccc3nc(NC(=O)OC)[nH]c3c2)cc1` [Example 64-a, 4-Ethoxy-benzenesulfonic acid 2-methoxycarbonylamino-3H-benzoimidazol-5-yl ester], half-maximal inhibition (IC50) was put at 1000 nM. Take `COC(=O)Nc1nc2ccc(OS(=O)(=O)c3ccc(OCCN4CCOCC4)cc3)cc2[nH]1` [Example 64-b, 4-(2-Morpholin-4-yl-ethoxy)-benzenesulfonic acid 2-methoxycarbonylamino-3H-benzoimidazol-5-yl ester]: the inhibition at 10 µM came to 50%. `COCCOc1ccc(S(=O)(=O)Oc2ccc3nc(NC(=O)OC)[nH]c3c2)cc1` [Example 64-c, 4-(2-Methoxy-ethoxy)-benzenesulfonic acid 2-methoxycarbonylamino-3H-benzoimidazol-5-yl ester] gave an IC50 of 4370 nM. Regarding `COC(=O)Nc1nc2ccc(OS(=O)(=O)c3ccc(OCCN4CCCCC4)cc3)cc2[nH]1` [Example 64-d, 4-(2-piperidin-1-yl-ethoxy)-benzenesulfonic acid 2-methoxycarbonylamino-3H-benzoimidazol-5-yl ester], at 10 µM the inhibition was 50%. On to `COC(=O)Nc1nc2cc(OS(=O)(=O)c3ccc(OCC(=O)N4CCN(C)CC4)cc3)ccc2[nH]1` [Example 66-a, 4-[2-(4-Methyl-piperazin-1-yl)-2-oxo-ethoxy]-benzenesulfonic acid 2-methoxycarbonylamino-1H-benzoimidazol-5-yl ester], for which at 10 µM the inhibition was 19%. `CCN(CC)CCCNC(=O)COc1ccc(S(=O)(=O)Oc2ccc3[nH]c(NC(=O)OC)nc3c2)cc1` [Example 66-b, 4-[(3-diethylamino-propylcarbamoyl)-methoxy]-benzenesulfonic acid 2-methoxycarbonylamino-1H-benzoimidazol-5-yl ester] had a half-inhibitory concentration (IC50) of 3050 nM. Turning to `COC(=O)Nc1nc2ccc(OS(=O)(=O)c3ccc(NCC4CC4)cc3)cc2[nH]1` [Example 67, 4-(cyclopropylmethyl-amino)-benzene sulfonic acid 2-methoxycarbonylamino-1H-benzoimidazol-5-yl ester], the inhibition at 10 µM stood at 91%. Same read-out and setting: to `COCCNc1ccc(S(=O)(=O)Oc2ccc3[nH]c(NC(=O)OC)nc3c2)cc1` [Example 68-a, 4-(2-methoxy-ethylamino)-benzenesulfonic acid 2-methoxycarbonylamino-1H-benzoimidazol-5-yl ester] belongs 97%.

With `COC(=O)Nc1nc2cc(OS(=O)(=O)c3ccc(NC(C)CO)cc3)ccc2[nH]1` (centres unmarked) [Example 68-b, 4-(2-hydroxy-1-methyl-ethylamino)-benzenesulfonic acid 2-methoxycarbonylamino-1H-benzoimidazol-5-yl ester], the inhibition at 10 µM worked out at 78%. Turning to `O=S(=O)(Oc1ccc2[nH]c(Nc3ccccc3)nc2c1)c1ccc(NC2CCCC2)cc1` [Example 70-a, 4-Cyclopentylamino-benzenesulfonic acid 2-phenylamino-1H-benzoimidazol-5-yl ester], inhibition was half-maximal at 1180 nM (IC50). `COCCNc1ccc(S(=O)(=O)Oc2ccc3[nH]c(NC(=O)NCCN4CCOCC4)nc3c2)cc1` [Example 78-e, 4-(2-Methoxy-ethylamino)-benzenesulfonic acid 2-[3-(2-morpholin-4-yl-ethyl)-ureido]-1H-benzoimidazol-5-yl ester] had an IC50 of 600 nM. This IC50 lies about 2-fold lower than the previous one.

Take `COCCNc1ccc(S(=O)(=O)Oc2ccc3[nH]c(NC(=O)NCc4ccccn4)nc3c2)cc1` [Example 78-f]: the IC50 stood at 100 nM. Compound `CCNC(=O)Nc1nc2cc(OS(=O)(=O)c3ccc(NCCOC)cc3)ccc2[nH]1` [Example 78-h, 4-(2-Methoxy-ethylamino)-benzenesulfonic acid 2-[3-(2-ethyl)-ureido]-1H-benzoimidazol-5-yl ester] returned an inhibition at 10 µM of 90%. Same read-out and setting: to `CC(CO)Nc1ccc(S(=O)(=O)Oc2ccc3[nH]c(NC(=O)NCCN4CCOCC4)nc3c2)cc1` (centres unmarked) [Example 78-i, 4-(2-Hydroxy-1-methyl-ethylamino)-benzenesulfonic acid 2-[3-(2-morpholin-4-yl-ethyl)-ureido]-1H-benzoimidazol-5-yl ester] belongs 97%.

These data come from patent US20050014811A1, “Substituted benzimidazole compounds and their use for the treatment of cancer” (Aventis Pharma S.A., priority 2001, published 2005).
